Values quoted from earlier work as cited in patent publication US9005898B2, “Method for controlling hair growth, method for selecting or evaluating hair growth control agent, and hair growth suppression agent” (Kao Corporation, priority 2010, dated 2015).

Test system: human hair follicle
Conditions: in a dose-dependent manner; Patent Document 7

In the case of `O=CN1CC/C(=C\c2ccc3c(c2)OCO3)C1=O` [KNK437], the “growth of the human hair follicle” value is given as “reduced”.
